In patent publication US12180197B2, “GLP-1R modulating compounds” (Gilead Sciences, Inc., priority 2021, dated 2024):

Target: GLP-1R (Homo sapiens, UniProt P43220)
Experiment: GLP-1R Activation - cAMP Assay 1
Format: cell-based
Settings: cAMP increase in CHO cells stably expressing GLP-1R; 30 minutes incubation; 10 point dose response
Method: GLP-1R Activation—cAMP Assay 1
GLP-1R activation by a compound of the present disclosure was quantified by measuring cAMP increase in CHO cells stably expressing GLP-1R (MultiSpan product #C1267-1a). The cells were harvested and plated in growth medium (DMEM/F-12 (Corning product #10-090-CV) supplemented with 10% FBS (HyClone product #SH30071-03), penicillin/streptomycin (Corning product #30-002CI) and 10 µg/ml puromycin (Gibco product #A11138-03)) at 1,000 cells/well in a 384-well plate (Greiner product #781080). The cells were then incubated overnight at 37° C., 5% CO2. The next day, the medium was removed and the cells were washed with DPBS (Corning product #21-031-CM) before adding the assay medium (HBSS, Corning product #21-023-CV) with 20 mM Hepes (Gibco product #15630-080) and 0.1% BSA (Rockland Immunochemicals product #BSA-1000)). Following the medium change, the cells were incubated for 1 hour at 37° C., 5% CO2. The tested GLP-1 compound was added to the cells in a 10 point dose response followed by a 30 minutes incubation at 37° C., 5% CO2. cAMP concentration increase was then detected using Cisbio's cAMP Gs Dynamic Kit (product #62AM4PEC) according to the manufacturer's protocol. The response was plotted against the log of the agonist concentration and fitted to a sigmoidal equation to determine the EC50.

GLP-1R, sequence (P43220 24-463): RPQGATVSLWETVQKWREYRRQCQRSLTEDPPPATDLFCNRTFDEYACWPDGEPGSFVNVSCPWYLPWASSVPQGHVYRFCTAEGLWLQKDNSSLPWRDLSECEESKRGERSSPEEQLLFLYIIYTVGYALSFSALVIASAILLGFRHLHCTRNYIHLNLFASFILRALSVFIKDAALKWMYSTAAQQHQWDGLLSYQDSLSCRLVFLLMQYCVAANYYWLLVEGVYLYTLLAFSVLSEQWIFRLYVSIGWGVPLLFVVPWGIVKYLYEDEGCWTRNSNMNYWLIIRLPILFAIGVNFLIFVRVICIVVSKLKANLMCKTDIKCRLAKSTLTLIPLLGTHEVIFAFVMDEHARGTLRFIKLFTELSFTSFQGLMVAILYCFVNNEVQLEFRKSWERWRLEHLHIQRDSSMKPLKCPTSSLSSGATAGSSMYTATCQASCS

Structure (SMILES) | EC50 [nM]
COCCn1c(CN2CCC(c3cccc(OCc4cccc5c4OC(F)(F)O5)n3)CC2)nc2ccc(C(=O)O)cc21 [Example 1, 2-((4-(6-((2,2-difluorobenzo[d][1,3]dioxol-4-yl)methoxy)pyridin-2-yl)piperidin-1-yl)methyl)-1-(2-methoxyethyl)-1H-benzo[d]imidazole-6-carboxylic acid] | 28.5
COCCn1c(CN2CCC(c3cccc(OCc4ccc(C(O)(C(F)(F)F)C(F)(F)F)cc4)n3)CC2)nc2ccc(C(=O)O)cc21 [Example 2, 2-((4-(6-((4-(1,1,1,3,3,3-hexafluoro-2-hydroxypropan-2-yl)benzyl)oxy)pyridin-2-yl)piperidin-1-yl)methyl)-1-(2-methoxyethyl)-1H-benzo[d]imidazole-6-carboxylic acid] | 1260
COCCn1c(CN2CCC(c3cccc(OCc4ccc5ncccc5c4)n3)CC2)nc2ccc(C(=O)O)cc21 [Example 3, 1-(2-methoxyethyl)-2-((4-(6-(quinolin-6-ylmethoxy)pyridin-2-yl)piperidin-1-yl)methyl)-1H-benzo[d]imidazole-6-carboxylic acid] | 32.4
COCCn1c(CN2CCC(c3cccc(OCc4ccc(Cl)c5ccccc45)n3)CC2)nc2ccc(C(=O)O)cc21 [Example 4, 2-((4-(6-((4-chloronaphthalen-1-yl)methoxy)pyridin-2-yl)piperidin-1-yl)methyl)-1-(2-methoxyethyl)-1H-benzo[d]imidazole-6-carboxylic acid] | 39.9
COCCn1c(CN2CCC(c3cccc(OCc4cccc5ccccc45)n3)CC2)nc2ccc(C(=O)O)cc21 [Example 5, 1-(2-methoxyethyl)-2-((4-(6-(naphthalen-1-ylmethoxy)pyridin-2-yl)piperidin-1-yl)methyl)-1H-benzo[d]imidazole-6-carboxylic acid] | 50.6
COCCn1c(CN2CCC(c3cccc(OCc4ccc5c(c4)OC(F)(F)O5)n3)CC2)nc2ccc(C(=O)O)cc21 [Example 6, 2-((4-(6-((2,2-difluorobenzo[d][1,3]dioxol-5-yl)methoxy)pyridin-2-yl)piperidin-1-yl)methyl)-1-(2-methoxyethyl)-1H-benzo[d]imidazole-6-carboxylic acid] | 10.5
COCCn1c(CN2CCC(c3cccc(OCc4ccc5c(c4)OCO5)n3)CC2)nc2ccc(C(=O)O)cc21 [Example 7, 2-((4-(6-(benzo[d][1,3]dioxol-5-ylmethoxy)pyridin-2-yl)piperidin-1-yl)methyl)-1-(2-methoxyethyl)-1H-benzo[d]imidazole-6-carboxylic acid] | 4920
COCCn1c(CN2CCC(c3cccc(OCc4cccc5c4cnn5C)n3)CC2)nc2ccc(C(=O)O)cc21 [Example 8, 1-(2-methoxyethyl)-2-((4-(6-((1-methyl-1H-indazol-4-yl)methoxy)pyridin-2-yl)piperidin-1-yl)methyl)-1H-benzo[d]imidazole-6-carboxylic acid] | 1310
COCCn1c(CN2CCC(c3cccc(OCc4ccc(S(C)(=O)=O)cc4)n3)CC2)nc2ccc(C(=O)O)cc21 [Example 9, 1-(2-methoxyethyl)-2-((4-(6-((4-(methylsulfonyl)benzyl)oxy)pyridin-2-yl)piperidin-1-yl)methyl)-1H-benzo[d]imidazole-6-carboxylic acid] | 1190
COCCn1c(CN2CCC(c3cccc(OCc4cccc(-c5noc(C)n5)c4)n3)CC2)nc2ccc(C(=O)O)cc21 [Example 10, 1-(2-methoxyethyl)-2-((4-(6-((3-(5-methyl-1,2,4-oxadiazol-3-yl)benzyl)oxy)pyridin-2-yl)piperidin-1-yl)methyl)-1H-benzo[d]imidazole-6-carboxylic acid] | 66.9
COCCn1c(CN2CCC(c3cccc(OCc4ccc(C(=O)N(C)C)cc4F)n3)CC2)nc2ccc(C(=O)O)cc21 [Example 11, 2-((4-(6-((4-(dimethylcarbamoyl)-2-fluorobenzyl)oxy)pyridin-2-yl)piperidin-1-yl)methyl)-1-(2-methoxyethyl)-1H-benzo[d]imidazole-6-carboxylic acid] | 9910
